Laboratory results as given in PubChem BioAssay AID1919000 (Molecular Pharmacology Branch, DTP, NCI, 2023).
Values joined by “and” are separate entries in the source; they are usually repeats but may differ in a detail not shown here. Equal values may be shown once.

Test system: 653999-131-R-J2-PDC complex spheroids, growth % test/control
Experiment: Anticancer human tumor 653999-131-R-J2-PDC patient-derived lung adenocarcinoma cell line growth inhibition [AhR]
Conditions: for viability, T/C: stronger effect = lower value; active = viability on the fitted dose curve at most 10% of control; inactive = the rest
Text: Multicellular complex tumor spheroid response to aryl hydrocarbon receptor antagonists in combination with a variety of drugs and investigational agents in selected tumor cell lines
The current study was undertaken to assess response to aryl hydrocarbon receptor antagonists in combination with standard-of-care drugs and investigational agents in solid tumor complex spheroid models. Complex spheroids include a stromal component modeled by human endothelial cells (HUVEC) and fibroblasts modeled by human mesenchymal stem cells (MSCs). The concentration ranges selected for each drug and investigational agent were based upon clinically achievable concentrations if the clinical Cmax of the agent was known.
Compounds. The drugs and investigational agents: BAY 2416964 (NSC825713), GNF351 (NSC835774), CH-223191 (NSC835775), CPI-455 (NSC825282), aza-TdCyd (NSC777586), decitabine (NSC127716), belinostat (NSC758774), entinostat (NSC756642), pevonedistat (NSC761192), tazemetostat (NSC777109), talazoparib (NSC765396), olaparib (NSC753686), selinexor (NSC780203), nedisertib (M3814, NSC802822), bortezomib (NSC756655), venetoclax (NSC766270), doxorubicin (NSC123127), elimusertib (BAY189344, NSC800525), ceralasertib (AZD6738, NSC777638), TAK-243 (NSC785004), alisertib (NSC759677), etoposide (NSC141540), topotecan (NSC609699), eribulin (NSC707389), gemcitabine (NSC613327), carboplatin (NSC241240), cisplatin (NSC119875), and SN-38 (NSC673596) were obtained from the National Cancer Institute (NCI) Developmental Therapeutics Program Chemical Repository (32). The FDA-approved anticancer drug set is available from the Developmental Therapeutics Program at https://dtp.cancer.gov/organization/dscb/obtaining/available plates.htm. […] The stock solutions were prepared in dimethyl sulfoxide (DMSO, Sigma-Aldrich, St. Louis, MO, cat. D2650), except for the platinum compounds which were prepared in saline (Quality Biological, Gaithersburg, MD, cat. 114-055-101), at 800-fold the tested concentration and stored at -70 degrees C prior to their use. All drugs and investigational agents were tested over a range starting from a high concentration at or near the clinical Cmax and decreasing in half-log increments. If the clinical Cmax for an agent had not been determined, the highest concentration tested was 10 microM (Table 1).
Cell Culture. All cells were maintained in an incubator at 37 degrees C and 5% CO2 with 95% humidity. The PDC lines were cultured according to standard operating procedures established by the NCI PDMR (https://pdmr.cancer.gov). Briefly, all PDCs were thawed and cultured in Matrigel-coated flasks prepared with a working solution of 1X Ham's F-12 nutrient mix, without supplementation (Invitrogen, Waltham, MA, cat. 11765054), 100 U/mL penicillin-streptomycin (Invitrogen, cat. 15140122), and 2.5% Matrigel (Corning Inc., Corning, NY, cat. 354248) for the first three passages. All PDCs were cultured in complete DMEM/F-12 media containing advanced DMEM/F-12 (Invitrogen, cat. 12634028), 4.9% defined fetal bovine serum, heat inactivated (HyClone Laboratories Inc., Logan, UT, cat. SH30070.03HI), 389 ng/mL hydrocortisone (Sigma-Aldrich, cat. H4001), 9.7 ng/mL human EGF recombinant protein (Invitrogen, cat. PHG0313), 23.4 microg/mL adenine (Sigma-Aldrich, cat. A2786), 97.3 U/mL penicillin-streptomycin (Invitrogen, cat. 15140122), 1.9 mM L-glutamine (Invitrogen, cat. 25030081), and 9.7 microM Y-27632 dihydrochloride (Tocris Bioscience, Bristol, United Kingdom, cat. 1254). The PDCs were cultured in complete DMEM/F12 media without 10 microM Y-27632 dihydrochloride for at least two passages prior to the screen. The established cell lines NCI-H1341 and […] were cultured in DMEM/F-12, HEPES (Invitrogen, cat. 11330032), 5% defined fetal bovine serum (HyClone Laboratories Inc., cat. SH30070.03), ITS premix universal culture supplement [insulin (5 microg/mL), transferrin (5 microg/mL), and selenious acid (5 ng/mL)] […]

[1] = curve of first compound, second compound 0.1 µM
[2] = curve of first compound, second compound 0.316 µM
[3] = curve of first compound, second compound 1 µM
[4] = curve of first compound, second compound 3.16 µM
[5] = curve of first compound, second compound 10 µM
[6] = second compound 0.1 µM, first compound 0.0316 µM
[7] = second compound 0.1 µM, first compound 0.1 µM
[8] = second compound 0.316 µM, first compound 0.0316 µM
[9] = second compound 0.316 µM, first compound 0.1 µM
[10] = second compound 1 µM, first compound 0.0316 µM
[11] = second compound 1 µM, first compound 0.1 µM
[12] = second compound 3.16 µM, first compound 0.0316 µM
[13] = second compound 3.16 µM, first compound 0.1 µM
[14] = second compound 10 µM, first compound 0.0316 µM
[15] = second compound 10 µM, first compound 0.1 µM
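Also: spheroids exposed to agents for seven days.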

CC[C@@]1(O)C(=O)OCc2c1cc1n(c2=O)Cc2cc3c(CN(C)C)c(O)ccc3nc2-1 + Cc1ccccc1N=Nc1ccc(NC(=O)c2ccnn2C)c(C)c1
0.0796 µM: IC50 [2]
inactive: viability, T/C (second compound 0.1 µM, first compound 0.000316 µM) 111% | viability, T/C (second compound 0.1 µM, first compound 0.001 µM) 104% | viability, T/C (second compound 0.1 µM, first compound 0.00316 µM) 93.1% | viability, T/C (second compound 0.1 µM, first compound 0.01 µM) 87.7% | viability, T/C [6] 63.7% | viability, T/C [7] 45.9% | viability, T/C (second compound 0.316 µM, first compound 0.000316 µM) 95% | viability, T/C (second compound 0.316 µM, first compound 0.001 µM) 108% | viability, T/C (second compound 0.316 µM, first compound 0.00316 µM) 120% | viability, T/C (second compound 0.316 µM, first compound 0.01 µM) 88.3% | viability, T/C [8] 63.4% | viability, T/C [9] 46% | viability, T/C (second compound 1 µM, first compound 0.000316 µM) 101% | viability, T/C (second compound 1 µM, first compound 0.001 µM) 122% | viability, T/C (second compound 1 µM, first compound 0.00316 µM) 109% | viability, T/C (second compound 1 µM, first compound 0.01 µM) 94.5% | viability, T/C [10] 61.6% | viability, T/C [11] 44.2% | viability, T/C (second compound 3.16 µM, first compound 0.000316 µM) 103% | viability, T/C (second compound 3.16 µM, first compound 0.001 µM) 110% | viability, T/C (second compound 3.16 µM, first compound 0.00316 µM) 109% | viability, T/C (second compound 3.16 µM, first compound 0.01 µM) 91.7% | viability, T/C [12] 59% | viability, T/C [13] 48.2% | viability, T/C (second compound 10 µM, first compound 0.000316 µM) 117% | viability, T/C (second compound 10 µM, first compound 0.001 µM) 106% | viability, T/C (second compound 10 µM, first compound 0.00316 µM) 101% | viability, T/C (second compound 10 µM, first compound 0.01 µM) 82.3% | viability, T/C [14] 65.8% | viability, T/C [15] 57.8%
0.0849 µM: IC50 [4]
0.0682 µM: IC50 [3]
0.0775 µM: IC50 [1]
> 0.1 µM: IC50 [5]

CC1COCCN1c1cc(C2(S(C)(=N)=O)CC2)nc(-c2ccnc3[nH]ccc23)n1 (configuration not stated) + Cc1ccccc1N=Nc1ccc(NC(=O)c2ccnn2C)c(C)c1
6.75 µM: IC50 [5]
8.18 µM: IC50 [3]
inactive: viability, T/C [6] 110% | viability, T/C [7] 90.1% | viability, T/C (second compound 0.1 µM, first compound 0.316 µM) 110% | viability, T/C (second compound 0.1 µM, first compound 1 µM) 83.5% | viability, T/C (second compound 0.1 µM, first compound 3.16 µM) 71.2% | viability, T/C (second compound 0.1 µM, first compound 10 µM) 47.3% | viability, T/C [8] 98.3% | viability, T/C [9] 102% | viability, T/C (second compound 0.316 µM, first compound 0.316 µM) 106% | viability, T/C (second compound 0.316 µM, first compound 1 µM) 94.5% | viability, T/C (second compound 0.316 µM, first compound 3.16 µM) 63% | viability, T/C (second compound 0.316 µM, first compound 10 µM) 45.1% | viability, T/C [10] 93.4% | viability, T/C [11] 95.3% | viability, T/C (second compound 1 µM, first compound 0.316 µM) 94.5% | viability, T/C (second compound 1 µM, first compound 1 µM) 84% | viability, T/C (second compound 1 µM, first compound 3.16 µM) 65.9% | viability, T/C (second compound 1 µM, first compound 10 µM) 46.6% | viability, T/C [12] 98% | viability, T/C [13] 86% | viability, T/C (second compound 3.16 µM, first compound 0.316 µM) 92.8% | viability, T/C (second compound 3.16 µM, first compound 1 µM) 80.8% | viability, T/C (second compound 3.16 µM, first compound 3.16 µM) 70.1% | viability, T/C (second compound 3.16 µM, first compound 10 µM) 41.6% | viability, T/C [14] 94.3% | viability, T/C [15] 83% | viability, T/C (second compound 10 µM, first compound 0.316 µM) 80.8% | viability, T/C (second compound 10 µM, first compound 1 µM) 71.2% | viability, T/C (second compound 10 µM, first compound 3.16 µM) 63.3% | viability, T/C (second compound 10 µM, first compound 10 µM) 42.8%
7.12 µM: IC50 [4]
7.29 µM: IC50 [2]
8.83 µM: IC50 [1]

Nc1ncn(C2CC(O)C(CO)S2)c(=O)n1 (configuration not stated)
inactive: viability, T/C (compound 0.000949 µM) 101% and 99.4% and 103% | viability, T/C (compound 0.003 µM) 96.3% and 106% and 112% | viability, T/C (compound 0.00949 µM) 98.4% and 110% and 100% | viability, T/C (compound 0.03 µM) 94.8% and 91% and 102% | viability, T/C (compound 0.0949 µM) 94.3% and 101% and 104% | viability, T/C (compound 0.3 µM) 86.8% and 100% and 89%
> 0.3 µM: IC50 (curve of compound)
